Experimental data from patent publication US10513534B2, “2′-chloro nucleoside analogs for HCV infection” (priority 2012, dated 2019).
Read-outs that look alike come from different tables or passages of the source.

Assays:
[1] = Liver triphosphate pharmacokinetics after single oral dose in CD-1 mice; format: in vivo; design: key: + ≤ 15; 15 < ++ ≤ 50; 50 < +++ ≤ 100; 100 < ++++; BLQ = below limit of quantitation; details: single oral dose 10 mg/kg in PEG 200;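 on Ms Liver TP AUC: pmol·h/g liver normalized to a 1 µmol/kg dose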;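 on Ms Liver TP Cmax: pmol/g liver normalized to a 1 µmol/kg dose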
Method: Internal standard solution was added to the homogenate followed by neutralization with 20% ammonium hydroxide solution and addition of 500 μL 1% formic acid. The tissue samples were extracted by weak anion exchange solid phase extraction (SPE). Post extraction, the eluates were evaporated under nitrogen, followed by reconstitution before injection onto the LC-MS/MS system.

[2] = in vitro; details: human
[3] = Plasma nucleoside pharmacokinetics after single oral dose in CD-1 mice; format: in vivo; details: single oral dose 10 mg/kg in PEG 200;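 on Ms Plasma nucleoside AUC: pmol·h/mL plasma normalized to a 1 µmol/kg dose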
Method: Plasma samples were analyzed for nucleoside by LC-MS/MS. The internal standard (IS) was either 2′-MeG-D3 or tiapride. For protein precipitation and extraction, each plasma sample (50 μL) was treated with 500 μL of 0.2% formic acid in acetonitrile and 20 μL of the internal standard working solution. After vortexing and centrifugation, 500 μL of the sample extracts were transferred to a new plate, dried under N2 at ˜28° C. and reconstituted with 75 μL of 0.2% FA in water. The extracts were chromatographed on an Aquasil C18 column using a gradient system of 0.2% formic acid in water and acetonitrile. The analytes were detected and quantified by tandem mass spectrometry in positive ion mode on an MDS Sciex API5000 equipped with a Turbo Ionspray® interface. The calibration range was 0.500 (LLOQ) to 200 ng/mL in mouse plasma.

[4] = test system: HCV genotype 1b replicon; experiment: HCV replicon assay (Zluc luciferase); format: cell-based; details: Zluc cells, 72 hours, read-out: HCV Replicon EC50
Method: Huh-7-derived cell line (Zluc) that harbors an HCV genotype 1b replicon and a luciferase reporter gene was grown in Dulbecco's Modified Eagle Medium (DMEM) supplemented with 10% fetal bovine serum, 2 mM GlutaMAX, 1% MEM nonessential amino acids, 100 IU/mL penicillin, 100 μg/mL streptomycin, and 0.5 mg/mL Geneticin® (G418). For dose response testing the cells were seeded in 96-well plates at 7.5×10^3 cells per well in a volume of 50 μL, and incubated at 37° C./5% CO2. Drug solutions were made up freshly in Huh-7 media as 2× stocks. Ten additional 5-fold dilutions were prepared from these stocks in DMEM without G418. At least three hours after Zluc cells were seeded, drug treatment was initiated by adding 50 μL of drug dilutions to the plates in duplicate. Final concentrations of drug ranged from 100 μM to […]. Cells were then incubated at 37° C./5% CO2. Alternatively, compounds were tested at two concentrations (1 μM and 10 μM). […] For this, media was removed from the plates via gentle tapping. Fifty microliters of ONE-glo luciferase assay reagent was added to each well. The plates were shaken gently for 3 min at room temperature and luminescence was measured on a Victor^3 V 1420 multilabel counter (Perkin Elmer) with a 1 second read time using a 700 nm cut-off filter. The EC50 values were calculated from dose response curves from the resulting best-fit equations determined by Microsoft Excel and XLfit 4.1 software. When screening at two fixed concentrations, the results were expressed as % inhibition at 1 μM and 10 μM.

| SMILES | Ms Liver TP AUC [1] | Ms Liver TP Cmax [1] | CC50 [2] [µM] | Ms Plasma nucleoside AUC [3] | Ms Plasma nucleoside Cmax [3] | EC50 ([4]; Hepatitis C virus, 72 h) [nM] | EC50 [4] [nM] |
| --- | --- | --- | --- | --- | --- | --- | --- |
| CC(C)OP1(=O)OC[C@H]2O[C@@H](n3ccc(=O)[nH]c3=O)[C@](C)(Cl)[C@@H]2O1 (single isomer, unassigned) [Compound 37 Diastereomer 1] | ++++ (1500 < ++++) | ++++ (100 < ++++) | > 50 | +++ (500 < +++ ≤ 1500) | +++ (50 < +++ ≤ 100) | 1000 to 10000 |  |
| CC(C)(C)C(=O)SCCOP1(=O)OC[C@H]2O[C@@H](n3ccc(N)nc3=O)[C@](C)(Cl)[C@@H]2O1 (single isomer, unassigned) [Compound 61 Diastereomer 1] | +++ (500 < +++ ≤ 1500) | +++ (50 < +++ ≤ 100) | > 50 | + (+ ≤ 150) | ++++ (100 < ++++) | < 250 |  |
| CCOC(=O)NCC(C)(C)C(=O)SCCOP1(=O)OC[C@H]2O[C@@H](n3ccc(=O)[nH]c3=O)[C@](C)(Cl)[C@@H]2O1 (single isomer, unassigned) [Compound 70 Single Diastereomer] | ++++ (1500 < ++++) | ++++ (100 < ++++) | > 50 | ++++ (1500 < ++++) | ++++ (100 < ++++) | < 250 |  |
| CC(C)(C)C(=O)SCCOP1(=O)OC[C@H]2O[C@@H](n3ccc(=O)[nH]c3=O)[C@](C)(Cl)[C@@H]2O1 (single isomer, unassigned) [Compound 201 Single Diastereomer] | ++++ (1500 < ++++) | ++++ (100 < ++++) | > 50 | +++ (500 < +++ ≤ 1500) | +++ (50 < +++ ≤ 100) | < 250 |  |
| CCCCOC(=O)[C@@H](C)NP(=O)(OC[C@H]1O[C@@H](n2ccc(=O)[nH]c2=O)[C@](C)(Cl)[C@@H]1O)Oc1ccccc1 (single isomer, unassigned) [Compound 202i Diastereomer 1] | ++++ (1500 < ++++) | ++++ (100 < ++++) | > 50 | ++++ (1500 < ++++) | ++++ (100 < ++++) |  | 1000 to 10000 |
| C[C@@H](NP(=O)(OC[C@H]1O[C@@H](n2ccc(=O)[nH]c2=O)[C@](C)(Cl)[C@@H]1O)Oc1ccccc1)C(=O)OCc1ccccc1 (single isomer, unassigned) [Compound 205i Diastereomer 1] | ++++ (1500 < ++++) | ++++ (100 < ++++) | > 50 | +++ (500 < +++ ≤ 1500) | +++ (50 < +++ ≤ 100) |  | 1000 to 10000 |
| C[C@@]1(Cl)[C@H](O)[C@@H](CO)O[C@H]1n1ccc(=O)[nH]c1=O [Compound 301, 2′-C-Chloro-2′-C-methyluridine] | BLQ | BLQ | > 50 | +++ (500 < +++ ≤ 1500) | +++ (50 < +++ ≤ 100) | > 10000 |  |
